We go through 32 compounds from patent US9247759B2, “Identification of human T2R receptors that respond to bitter compounds that elicit the bitter taste in compositions, and the use thereof in assays to identify compounds that inhibit (block) bitter taste in compositions and use thereof” (SENOMYX, INC., priority 2007, dated 2016).

pIC50: −log10 of the molar value. Read-outs that look alike come from different tables or passages of the source.

This assay concerns the target hT2R8 (Homo sapiens (Human), UniProt Q9NYW2). The experiment in a line: hT2R8 antagonist high-throughput FLIPR assay, stable cell line with G16g44, agonist andrographolide. Format: cell-based. As to conditions: for IC50: unit uM, read-out: IC50 on hT2R08 bitter receptor. The procedure, abridged:
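HEK293 cells stably co-expressing hT2R8 and chimeric G16g44, read on FLIPR. Test compounds added together with andrographolide (200 μM), which drives the receptor to 70–80% of maximal activity; antagonism seen as reduced agonist response.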

[1] abbreviates: read-out: IC50 on hT2R8 bitter receptor.
[2] abbreviates: table after Example 12-37, read-out: hT2R8 IC50.
[3] abbreviates: table after Example 10-97, read-out: hT2R8 IC50.

hT2R8, sequence (Q9NYW2 whole entry): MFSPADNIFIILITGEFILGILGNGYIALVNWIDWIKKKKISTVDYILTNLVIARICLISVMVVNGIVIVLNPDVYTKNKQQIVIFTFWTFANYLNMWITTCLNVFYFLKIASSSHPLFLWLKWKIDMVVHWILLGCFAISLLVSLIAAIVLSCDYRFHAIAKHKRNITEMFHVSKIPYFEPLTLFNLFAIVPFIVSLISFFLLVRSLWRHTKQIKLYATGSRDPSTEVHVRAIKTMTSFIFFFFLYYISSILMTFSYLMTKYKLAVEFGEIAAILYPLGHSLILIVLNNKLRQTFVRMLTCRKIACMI

As usually defined, the pIC50 is the IC50 on a negative log10 scale, so that one unit is a factor of ten. Regarding `Cc1ccccc1S(=O)(=O)Nc1cnn(Cc2c(C)noc2C)c1` [Example 4-102, N-(1-((3,5-dimethylisoxazol-4-yl)methyl)-1H-pyrazol-4-yl)-2-methylbenzenesulfonamide], the pIC50 (Table A, read-out: hT2R8 IC50) was 5.67.
On the same count and under the same terms, the figure for `Cc1noc(C)c1Cn1cc(NC(=O)c2ccc3occc3c2)cn1` [Example 4-77, N-(1-((3,5-dimethylisoxazol-4-yl)methyl)-1H-pyrazol-4-yl)benzofuran-5-carboxamide] is 5.85.
Consider `Cc1noc(C)c1Cn1cc(N2C(=O)[C@H](C)N(Cc3ccccc3)C2=O)cn1` [Example 12-11, (S)-1-benzyl-3-(1-((3,5-dimethylisoxazol-4-yl)methyl)-1H-pyrazol-4-yl)-5-methylimidazolidine-2,4-dione], for which the pIC50 under setting [1] was 8.00.
Turning to `Cc1noc(C)c1Cn1cc(N2C(=O)N(CCc3ccc(F)cc3)C(C)(C)C2=O)cn1` [Example 12-69, 3-(1-((3,5-dimethylisoxazol-4-yl)methyl)-1H-pyrazol-4-yl)-1-(4-fluorophenethyl)-5,5-dimethylimidazolidine-2,4-dione], the pIC50 under setting [2] is 6.48.
As to `Cc1noc(C)c1Cn1cc(N2C(=O)N(Cc3ccccc3C(=O)O)C(C)(C)C2=O)cn1` [Example 12-91, 2-((3-(1-((3,5-dimethylisoxazol-4-yl)methyl)-1H-pyrazol-4-yl)-5,5-dimethyl-2,4-dioxoimidazolidin-1-yl)methyl)benzoic acid], the pIC50 under setting [2] is 5.37.
For the compound `COc1ccccc1S(=O)(=O)Nc1cnn(Cc2c(C)noc2C)c1` [Example 4-103, N-(1-((3,5-dimethylisoxazol-4-yl)methyl)-1H-pyrazol-4-yl)-2-methoxybenzenesulfonamide], the pIC50 (Table A, read-out: hT2R8 IC50) is 5.42.
For `Cc1noc(C)c1Cn1cc(NC(=O)c2cccc3nccnc23)cn1` [Example 4-76, N-(1-((3,5-dimethylisoxazol-4-yl)methyl)-1H-pyrazol-4-yl)quinoxaline-5-carboxamide], the pIC50 (Table A, read-out: hT2R8 IC50) is 5.77.
The same measure, in the same setting: the result for `Cc1noc(C)c1Cn1cc(NC(=O)C(c2ccccc2)c2ccccc2)cn1` [Example 4-44, N-(1-((3,5-dimethylisoxazol-4-yl)methyl)-1H-pyrazol-4-yl)-2,2-diphenylacetamide] reads 5.28.
On to `Cc1noc(C)c1Cn1cc(N2C(=O)CN(Cc3ccccc3C#N)C2=O)cn1` [Example 10-19, 2-((3-(1-((3,5-dimethylisoxazol-4-yl)methyl)-1H-pyrazol-4-yl)-2,4-dioxoimidazolidin-1-yl)methyl)benzonitrile], for which the pIC50 is, setting by setting: under setting [1], 6.30; under setting [3], 6.26.
For the compound `Cc1noc(C)c1Cn1cc(N2C(=O)N(Cc3cccc(OCC(=O)O)c3)C(C)(C)C2=O)cn1` [Example 12-90, 2-(3-((3-(1-((3,5-dimethylisoxazol-4-yl)methyl)-1H-pyrazol-4-yl)-5,5-dimethyl-2,4-dioxoimidazolidin-1-yl)methyl)phenoxy)acetic acid], the pIC50 under setting [2] is 5.55.
For the compound `Cc1noc(C)c1Cn1cc(N2C(=O)CN(Cc3cccc(C(=O)O)c3)C2=O)cn1` [Example 10-8, 3-((3-(1-((3,5-dimethylisoxazol-4-yl)methyl)-1H-pyrazol-4-yl)-2,4-dioxoimidazolidin-1-yl)methyl)benzoic acid], the pIC50 by setting is: under setting [1], 5.74; under setting [3], 5.75.
With `Cc1noc(C)c1Cn1cc(N2C(=O)N(Cc3cccc(C(F)(F)F)c3)C(C)(C)C2=O)cn1` [Example 12-84, 3-(1-((3,5-dimethylisoxazol-4-yl)methyl)-1H-pyrazol-4-yl)-5,5-dimethyl-1-(3-(trifluoromethyl)benzyl)imidazolidine-2,4-dione], the pIC50 under setting [2] was 5.81.
In the case of `Cc1noc(C)c1Cn1cc(N2C(=O)CN(CCc3ccc(O)cc3)C2=O)cn1` [Example 10-86, 3-(1-((3,5-dimethylisoxazol-4-yl)methyl)-1H-pyrazol-4-yl)-1-(4-hydroxyphenethyl)imidazolidine-2,4-dione], the pIC50 was 6.39 under setting [1] and 6.39 under setting [3].
`Cc1noc(C)c1Cn1cc(N2C(=O)N(Cc3ccc(F)c(O)c3)C(C)(C)C2=O)cn1` [Example 12-19, 3-(1-((3,5-dimethylisoxazol-4-yl)methyl)-1H-pyrazol-4-yl)-1-(4-fluoro-3-hydroxybenzyl)-5,5-dimethylimidazolidine-2,4-dione]: under setting [1], the pIC50 was 8.00.
With `Cc1noc(C)c1Cn1cc(N2C(=O)NC(CO)C2=O)cn1` (stereo not shown) [Example 10-97, 3-(1-((3,5-dimethylisoxazol-4-yl)methyl)-1H-pyrazol-4-yl)-5-(hydroxymethyl)imidazolidine-2,4-dione], the pIC50 under setting [1] was 5.52.
Regarding `COc1cc(CC(=O)Nc2cnn(Cc3c(C)noc3C)c2)cc(OC)c1` [Example 4-32, 2-(3,5-dimethoxyphenyl)-N-(1-((3,5-dimethylisoxazol-4-yl)methyl)-1H-pyrazol-4-yl)acetamide], where the note is “Table A, read-out: hT2R8 IC50”, the pIC50 is 6.02.
In the case of `Cc1noc(C)c1Cn1cc(N2C(=O)NC(C)(C)C2=O)cn1` [Example 12-16a, 3-(1-((3,5-dimethylisoxazol-4-yl)methyl)-1H-pyrazol-4-yl)-5,5-dimethylimidazolidine-2,4-dione], under setting [1], the pIC50 was 5.64.
`COc1cc(C(=O)Nc2cnn(Cc3c(C)noc3C)c2)cc(O)c1O` [Example 4-73, N-(1-((3,5-dimethylisoxazol-4-yl)methyl)-1H-pyrazol-4-yl)-3,4-dihydroxy-5-methoxybenzamide]: the pIC50 was 5.66 (Table A, read-out: hT2R8 IC50) and 5.66 under setting [1].
In the case of `Cc1noc(C)c1Cn1cc(N2CN(Cc3ccccc3)CN(CCc3ccccc3)C2=O)cn1` [Example 9-7, 5-benzyl-1-(1-((3,5-dimethylisoxazol-4-yl)methyl)-1H-pyrazol-4-yl)-3-phenethyl-1,3,5-triazinan-2-one], the pIC50 runs as follows: under setting [1], 5.58; under setting [3], 5.18.
As for `COc1cc(CN2C(=O)N(c3cnn(Cc4c(C)noc4C)c3)C(=O)C2(C)C)cc(OC)c1` [Example 12-18, 1-(3,5-dimethoxybenzyl)-3-(1-((3,5-dimethylisoxazol-4-yl)methyl)-1H-pyrazol-4-yl)-5,5-dimethylimidazolidine-2,4-dione], the pIC50 under setting [1] was 6.52.
Regarding `Cc1noc(C)c1Cn1cc(-n2c(=O)n(C)n(CCOc3ccccc3)c2=O)cn1` [Example 10-67, 4-(1-((3,5-dimethylisoxazol-4-yl)methyl)-1H-pyrazol-4-yl)-1-methyl-2-(2-phenoxyethyl)-1,2,4-triazolidine-3,5-dione], the pIC50 under setting [1] was 7.51.
By IC50 is commonly meant the point on the concentration scale where inhibition reaches its midpoint. Turning to `Cc1cccc(CN2CC(=O)N(c3cnn(Cc4c(C)noc4C)c3)C2=O)c1` [Example 10-26, 3-(1-((3,5-dimethylisoxazol-4-yl)methyl)-1H-pyrazol-4-yl)-1-(3-methylbenzyl)imidazolidine-2,4-dione], the IC50 came to 0.02 µM. Also, the pIC50 under setting [3] was 7.72.
`Cc1noc(C)c1Cn1cc(N2C(=O)N(Cc3c(F)cccc3F)C(C)(C)C2=O)cn1` [Example 12-44, 1-(2,6-difluorobenzyl)-3-(1-((3,5-dimethylisoxazol-4-yl)methyl)-1H-pyrazol-4-yl)-5,5-dimethylimidazolidine-2,4-dione]: under setting [2], the pIC50 was 7.00.
`Cc1noc(C)c1Cn1cc(-n2c(=O)[nH]c(=O)n(CCc3ccccc3)c2=O)cn1` [Example 9-8, 1-(1-((3,5-dimethylisoxazol-4-yl)methyl)-1H-pyrazol-4-yl)-3-phenethyl-1,3,5-triazinane-2,4,6-trione]: the pIC50 is, setting by setting: under setting [1], 5.52; under setting [3], 5.21.
As to `Cc1noc(C)c1Cn1cc(NC(=O)c2ccc3c(c2)OC(F)(F)O3)cn1` [Example 4-78, N-(1-((3,5-dimethylisoxazol-4-yl)methyl)-1H-pyrazol-4-yl)-2,2-difluorobenzo[d][1,3]dioxole-5-carboxamide], for the setting “Table A, read-out: hT2R8 IC50”, the pIC50 was 5.89.
Turning to `Cc1cccc(C)c1CN1C(=O)N(c2cnn(Cc3c(C)noc3C)c2)C(=O)C1(C)C` [Example 12-85, 1-(2,6-dimethylbenzyl)-3-(1-((3,5-dimethylisoxazol-4-yl)methyl)-1H-pyrazol-4-yl)-5,5-dimethylimidazolidine-2,4-dione], the pIC50 under setting [2] was 5.80.
In the case of `COCc1ccc(CN2C(=O)N(c3cnn(Cc4c(C)noc4C)c3)C(=O)C2(C)C)cc1` [Example 12-92, 3-(1-((3,5-dimethylisoxazol-4-yl)methyl)-1H-pyrazol-4-yl)-1-(4-(methoxymethyl)benzyl)-5,5-dimethylimidazolidine-2,4-dione], the pIC50 under setting [2] was 6.55.
With `COc1cccc(C(=O)Nc2nnn(Cc3c(C)noc3C)n2)c1` [Example 10-39, N-(2-((3,5-dimethylisoxazol-4-yl)methyl)-2H-tetrazol-5-yl)-3-methoxybenzamide], the pIC50 under setting [1] was 5.73.
Turning to `COc1ccc(OC)c(S(=O)(=O)Nc2cnn(Cc3c(C)noc3C)c2)c1` [Example 4-101, N-(1-((3,5-dimethylisoxazol-4-yl)methyl)-1H-pyrazol-4-yl)-2,5-dimethoxybenzenesulfonamide], the pIC50 (Table A, read-out: hT2R8 IC50) was 5.79.
`Cc1noc(C)c1Cn1cc(N2C(=O)CN(Cc3ccccc3[S+](C)[O-])C2=O)cn1` (stereo not shown) [Example 10-17, 33-(1-((3,5-dimethylisoxazol-4-yl)methyl)-1H-pyrazol-4-yl)-1-(2-(methylsulfinyl)benzyl)imidazolidine-2,4-dione]: the IC50 stood at 0.4 µM. For the same compound, under setting [3], the negative-log IC50 (pIC50) was 6.39.
Consider `Cc1noc(C)c1Cn1cc(N(C)C(=O)C2(c3ccccc3)CC2)cn1` [Example 4-66, N-(1-((3,5-dimethylisoxazol-4-yl)methyl)-1H-pyrazol-4-yl)-N-methyl-1-phenylcyclopropanecarboxamide], for which the pIC50 (Table A, read-out: hT2R8 IC50) was 5.08.
For `Cc1noc(C)c1Cn1cc(N2C(=O)N(Cc3ccccc3O)C(C)(C)C2=O)cn1` [Example 12-39, 3-(1-((3,5-dimethylisoxazol-4-yl)methyl)-1H-pyrazol-4-yl)-1-(2-hydroxybenzyl)-5,5-dimethylimidazolidine-2,4-dione], the pIC50 under setting [2] was 7.15.
